Measured values taken from US12384821B2, “Antimicrobial peptides and compositions, methods, articles and kits relating thereto” (George Mason University, priority 2020, dated 2025).
Where two headings read alike, the source gives them in different places. Where no end group is shown, it is not given here.

Tests used:
[1] = test system: carbapenem-resistant K. pneumoniae strain (ATCC BAA-1705); assay type: cell-based, Klebsiella pneumoniae; conditions: for MIC (μM) / MIC (μg/mL): ATCC BAA-1705; for Antibacterial activity against CRKP (in words): CA-MHB, high salt test conditions
Method: Klebsiella pneumoniae ATCC BAA-1705 was purchased from the American Type Culture Collection (Manassas, VA) and grown in Cation-Adjusted Mueller Hinton Broth. Bacteria were aliquoted and frozen at −80° C. with 20% glycerol and enumerated via serial dilution and plating prior to experimentation.
The minimum inhibitory concentration (MIC) of the peptides was determined according to Clinical & Laboratory Standards Institute (CLSJ) guidelines. Bacteria were grown overnight on Cation-adjusted Mueller Hinton Agar (BD 211438, CAMHA) at 37° C. Assays were performed in Cation-adjusted Mueller Hinton Broth (BD 212322, CAMHB) in polypropylene 96 well plates (Corning 3879). Each experiment was performed with three replicates at least three times.

[2] = test system: G. mellonella; design: species or system Galleria mellonella; conditions: in vivo
From the text: (§1) We tested these antimicrobial peptides in the waxworm, G. mellonella.

[3] = test system: CRKP infected waxworms; experiment: Waxworm infection model (CRKP infected G. mellonella); assay type: in vivo, Galleria mellonella
Method: FIG. 5 is a graph showing waxworm survival curves. Waxworms were injected with 10 μL containing 5×10^5 CFU in their rear left proleg. The waxworms were allowed to recover for 30 minutes at 37° C. They were injected with 10 μL containing the various treatments. They were kept at 37° C. and scored for survival every 24 hours. Each group contained 10 waxworms.
Galleria mellonella larvae were obtained from Vanderhorst Wholesale (Saint Marys, OH, USA). 10 larvae weighing between 250 and 300 mg were randomly assigned to each group. Waxworms were injected with 10 μL containing […] suspended in DPBS in their rear left proleg. The waxworms were then allowed to recover for 30 minutes at 37° C. They were then injected with 10 μL DPBS containing the various treatments into their rear right proleg. They were then kept at 37° C. and scored for survival every 24 hours.
as §1

[4] = test system: K. pneumoniae strain ATCC BAA-1705; experiment: DiSC3(5) membrane depolarization assay; assay type: cell-based, Klebsiella pneumoniae; conditions: PBS, 100, 10 and 1 μg/ml, 20 min
Method: FIGS. 2A-2B are graphs showing (A) membrane disruption as measured by ethidium bromide uptake against K. pneumoniae strain ATCC BAA-1705 in PBS at 50 μg/ml. Δ RFU shown is after 20 min incubation, done twice in triplicate. A one-way ANOVA with multiple comparisons was performed to determine statistical significance (* p<0.05; ** p<0.01; *** p<0.001); and (B) membrane depolarization Membrane depolarization was measures using 3,3′-dipropylthiadicarbocyanine iodide (DiSC3(5)) against K. pneumoniae strain ATCC BAA-1705 in PBS at 100, 10 and 1 μg/ml. Δ RFU shown is after 20 min incubation, done twice in triplicate. DRGN-6 refers to SEQ ID NO:6, DRGN-7 refers to SEQ ID NO:6 with N-terminus acetylated, DRGN-8 refers to SEQ ID NO:7, NACATH refers to SEQ ID NO:9.
Membrane depolarization was measured using DiSC3(5) (3,3′-dipropylthiadicarbocyanine iodide) as previously described with some modifications. Stocks of enumerated frozen Klebsiella pneumonia ATCC BAA-1705 were pelleted and washed twice in phosphate buffered saline (PBS) and then resuspended to 4×10^7 CFU/ml in PBS containing 50 μg/ml DiSC3(5). […] The plate was incubated in a fluorescence spectrophotometer (Tecan Infinite 200) and monitored until fluorescence stopped decreasing. […] Readings were taken at 20 minutes after addition of peptide (excitation=635 nm; emission=670 nm). […]

[5] = Circular dichroism spectroscopy, percent alpha-helicity; assay type: physicochemical; conditions: 100 μg/mL peptide
Method: Circular dichroism (CD) analysis of the peptides was performed using a Jasco J-1500 spectropolarimeter. 100 μg/mL of peptide was used in each experiment. Samples were allowed to equilibrate for 5 min prior to data collection at 25° C. in a 1 mm path length cuvette. Spectra were collected from 190 to 260 nm with at 20 nm/min, a data integration time of 4 seconds and a 1 nm bandwidth. Data shown represents the average of four spectra. The peptides were analyzed in 10 mM sodium phosphate buffer (6.12 mM sodium monohydrogen phosphate heptahydrate; 3.92 mM monosodium phosphate anhydrous; pH 7.4), 50% (v/v) trifluoroethanol (TFE) in phosphate buffer, or 60 mM sodium dodecyl sulfate (SDS) in phosphate buffer. Percent contribution to secondary structure was measured using methods described in Raussens, V. et al. (Analytical Biochemistry, 319(1):114-21 (2003)).
The secondary structures of many CAMPs are disordered in the absence of anionic membranes or micelles, but adopt more defined secondary structures in their presence. To detect and measure any changes that the DRGN peptides may undergo based on environment, we studied their structural properties in 10 mM phosphate buffer as a negative control, 60 mM SDS in 10 mM phosphate buffer and 50% 2,2,2-Trifluoroethanol (TFE) in 10 mM phosphate buffer. Phosphate buffer without SDS or TFE provided an environment for studying the conformational properties of the peptides structure in the absence a micelle or membrane. Sodium dodecyl sulfate is an anionic surfactant that can form micelles in aqueous buffers mimicking bacterial membranes and simulating the effects an anionic membrane can have on the conformations of antimicrobial peptides. Addition of trifluoroethanol to aqueous buffer promotes increased structure, usually helicity, in peptides with suitable sequences.

Row | Compound | MIC (μM) [1] | MIC (μg/mL) [1] | MIC (μM) ([1]; CLSI protocol in CA-MHB) | MIC (μg/mL) ([1]; CLSI protocol in CA-MHB) | further results
1 | RRWRRFFRKAKRLLRRFG-NH2 [DRGN-9] | 6.4 µM | 16 µg/mL |  |  | Increase in MIC compared to unmodified counterpart DRGN-8 ([1]; C-terminal amidation, decreased effectiveness): 2 fold
2 | CC[C@H](C)[C@H](NC(=O)[C@H](CCCCN)NC(=O)[C@H](CCC(=O)O)NC(=O)[C@H](CCCCN)NC(=O)[C@H](CO)NC(=O)[C@H](CCCCN)NC(=O)[C@H](CCCNC(=N)N)NC(=O)[C@H](Cc1ccccc1)NC(=O)[C@H](Cc1ccccc1)NC(=O)[C@H](CC(=O)O)NC(=O)CNC(=O)[C@H](CC(C)C)NC(=O)[C@@H](N)CC(C)C)C(=O)NCC(=O)N[C@@H](CCCCN)C(=O)N[C@@H](CCC(=O)O)C(=O)N[C@@H](Cc1ccccc1)C(=O)N[C@@H](CCCCN)C(=O)N[C@@H](CCCNC(=N)N)C(=O)N[C@H](C(=O)N[C@H](C(=O)N[C@@H](CCC(N)=O)C(=O)N[C@@H](CCCNC(=N)N)C(=O)N[C@H](C(=O)N[C@@H](CCCCN)C(=O)N[C@@H](CC(=O)O)C(=O)N[C@@H](Cc1ccccc1)C(=O)N[C@@H](CC(C)C)C(=O)N[C@@H](CCCNC(=N)N)C(=O)N[C@@H](CC(N)=O)C(=O)N[C@@H](CC(C)C)C(=O)N[C@H](C(=O)N1CCC[C@H]1C(=O)N[C@@H](CCCNC(=N)N)C(=O)N[C@H](C(=O)N[C@@H](CCC(=O)O)C(=O)N[C@@H](CO)C(=O)O)[C@@H](C)O)C(C)C)[C@@H](C)CC)C(C)C)[C@@H](C)CC [LL-37, reference compound] |  |  | >14 µM | >64 µg/mL | Antibacterial activity against CRKP (in words) [1]: very little antibacterial activity
3 | RRWRRFFQKAKRLLRRFG [DRGN-6] | 1.6 µM | 4 µg/mL |  |  | Toxicity of peptide alone in waxworm [2]: none of the peptides DRGN-6, -7 and -8 alone caused toxicity
4 | RRWRRFFRKAKRIIG-NH2 [DRGN-11] | >31 µM | >64 µg/mL |  |  | Antibacterial activity against CRKP (in words) [1]: virtually inactive
5 | Ac-FRWRRFFRKAKRFLKRHGVSIAIGTVRLLRRFG-NH2 [DRGN-5] |  |  | 7.7 µM | 32 µg/mL | 
6 | FRWRRFFRKAKRFLKRHGVSIAIGTVRLLRRFG [VK-CATH4.1] |  |  | 7.7 µM | 32 µg/mL | 
7 | RRWRRFFRKAKRIIG-OH [DRGN-10] | >31 µM | >64 µg/mL |  |  | Antibacterial activity against CRKP (in words) [1]: virtually inactive
8 | RRWRRFFQKAKRFVKRHGVSIAVGAYRIIG [VK-CATH4.2] | 8.7 µM |  |  | 32 µg/mL | 
9 | H-FRWRRFFRKAKRFLKRHAVSIAIGTVRLLRRFG-OH [DRGN-2] |  |  | 7.7 µM | 32 µg/mL | 
10 | Colistin [reference compound] |  |  | 3.46 µM | 4 µg/mL | 
11 | Ac-FRWRRFFRKAKRFLKRHAVSIAIGTVRLLRRFG-NH2 [DRGN-3] |  |  | 7.6 µM | 32 µg/mL | 
12 | RRWRRFFRKAKRLLRRFG [DRGN-8] | 3.2 µM | 8 µg/mL |  |  | Toxicity of peptide alone in waxworm [2]: none of the peptides DRGN-6, -7 and -8 alone caused toxicity
13 | CN(C)c1cc(NC(=O)CNC(C)(C)C)c(O)c2c1C[C@H]1C[C@H]3[C@H](N(C)C)C(O)=C(C(N)=O)C(=O)[C@@]3(O)C(O)=C1C2=O [tigecycline, reference compound] |  |  |  |  | Survival of CRKP infected caterpillars ([3]; control antibiotic injected): 100%
14 | H-RRWRRFFQKAKRLLRRFG-NH2 [DRGN-7] | 1.6 µM | 4 µg/mL |  |  | Change of MIC compared to DRGN-6 ([1]; increase = decreased effectiveness): no effect on MIC; Membrane depolarization, DiSC3(5) [4]: significant depolarization at all concentrations tested; Percent alpha-helicity, 10 mM phosphate buffer ([5]; 10 mM phosphate buffer): 3.0%; Percent alpha-helicity, SDS ([5]; 60 mM SDS in 10 mM phosphate buffer): 77.0%; Percent alpha-helicity, TFE ([5]; 50% TFE in 10 mM phosphate buffer): 72.6%; Survival benefit in CRKP infected waxworms ([3]; single injection 30 min after infection): no survival benefit was observed; Toxicity of peptide alone in waxworm [2]: none of the peptides DRGN-6, -7 and -8 alone caused toxicity
